# Source: patent US8187586B2, “Methods of inducing apoptosis in hyperproliferative cells” (Case Western Reserve University, priority 2001, dated 2012)
# Experiments:
# [1] = test system: LNCaP cells; test: Western blot of endogenous KChAP (899 antibody) after apoptotic stimulus; assay type: cell-based, human
# From the text: (§1) Antibodies and Western Blotting Two antibodies were used to monitor intracellular levels of KChAP protein in control and Ad/KChAP infected cells. Antibody 899 was raised against a bacterial fusion protein which consisted of the C-terminal 169 amino acids of KChAP (Wible et al, 1998; Kuryshecv et al 2000). It recognizes both endogenous and overexpressed KChAP. Antibody 088 was raised against a peptide in the N-terminus of KChAP which is not present in PIAS3 (SPSPLASIPPTLLTPGTLL-GPKREVDMH, SEQ ID NO. 3). Antibody 088 recognizes only overexpressed, not endogenous, KChAP. Affinity purified antibodies were used in Western blotting. Other antibodies used for Western blotting to detect the following proteins were obtained from commercial sources: p53 (DO-1; Santa Cruz Biotech.), STAT1, STAT3, and cyclins A, B, and D3 (Transduction Labs), actin (clone AC-40, Sigma), phospho-p53 (ser 15) (Cell Signaling Tech. Inc.), PARP (we used two antibodies interchangeably which recognize both intact and cleaved PARP; one from Cell Signaling Inc., and one from Pharmingen), monoclonal Rb (Pharmingen), and p21 (WAF1 Ab1; Oncogene Res. Pdts).
# (§2) Cells were lysed in a buffer consisting of 1% Triton-X 100, 150 mM NaCl, 50 mM Tris, 1 mM EDTA, pH 7.5 containing freshly added protease inhibitors (Complete, Roche Mol. Biol.) and the phosphatase inhibitors sodium fluoride (50 mM) and sodium orthovanadate (1 mM) for 30 minutes on ice. Insoluble debris was pelleted at 20,800×g for 10 minutes at 4° C. Lysate protein concentrations were determined by the BCA method (Pierce), and aliquots were boiled in a reducing SDS sample buffer to denature protein. SDS PAGE gels were blotted to PVDF membranes using a semi-dry blotting apparatus. Blots were blocked overnight in 5% milk (Bio-Rad) in PBS-T (PBS plus 0.1% Tween-20) at 4° C. Primary antibodies diluted in blocking buffer were incubated with the blots for one hour at room temperature (RT). Blots were washed with PBS-T and incubated with HRP (horseradish peroxidase)-conjugated secondary antibodies (Amersham Pharmacia) in blocking buffer for 1 hour at RT. Blots were developed with the ECL-Plus kit (Amersham Pharmacia).
# (§3) We observed an increase in the amount of endogenous KChAP detected in cells exposed to STS. […] Multiple bands are detected in both cell lysates with the 899 antibody; a 68 kD doublet which is close to the predicted molecular weight of KChAP and PIAS3 and an upper band of about 85 kD. […] The signal then drops to control levels or lower after about 6 hours in LNCaP cells and around 4 to 6 hours in Jurkat cells. This peak in immunoreactivity largely precedes detection of PARP cleavage, a marker for apoptosis. […] There was no change in the 85 kD band. […]
# [2] = test system: Jurkat cells; test: as above; assay type: cell-based; details: for signal of the 68 kD KChAP doublet (899 antibody): STS 1 μM
# From the text: as §1, §2, §3
# [3] = test system: prostate cancer cells and breast cancer cells versus cardiomyocytes; test: Sensitivity of cancer versus non-cancerous cells to KChAP overexpression; assay type: cell-based
molecule,measurement,setting,value
CN[C@@H]1C[C@H]2O[C@@](C)([C@@H]1OC)n1c3ccccc3c3c4c(c5c6ccccc6n2c5c31)C(=O)NC4 [staurosporine],signal of the 68 kD KChAP doublet (899 antibody),"[1]; LNCaP, STS 1 μM",immunoreactivity increases
same,time after which KChAP signal drops to control levels or lower,"[1]; LNCaP, STS 1 μM",about 6 hours
same,signal of the 68 kD KChAP doublet (899 antibody),"[1]; LNCaP, STS 1 μM, listed as STS",increased as early as one hour after the addition of STS
same,KChAP content of Jurkat cells,[2],greatly increases their KChAP content
same,apoptosis in Jurkat cells,[2],causes apoptosis
same,signal of the 68 kD KChAP doublet (899 antibody),[2],immunoreactivity increases
same,signal of the 68 kD KChAP doublet (899 antibody),[2]; listed as STS,increased as early as one hour after the addition of STS
CC[C@@]1(O)C(=O)OCc2c1cc1n(c2=O)Cc2cc3ccccc3nc2-1 [camptothecin],pattern of KChAP immunoreactivity after apoptotic inducing drug,"[1]; cell line not specified, data not shown",the same pattern was also obtained
"KChAP: potassium channel modulatory protein, human sequence SEQ ID NO:2, overexpressed in cells (protein, listed as Homo sapiens) MKIKELYRRRFPRKTLGPSDLSLLSLPPGTSPVGSPGPLAPIPPTLLAPGTLLGPKREVDMHPPLPQPVHPDVTMKPLPFYEVYGELIRPTTLASTSSQRFEEAHFTFALTPQQVQQILTSREVLPGAKCDYTIQVQLRFCLCETSCPQEDYFPPNLFVKVNGKLCPLPGYLPPTKNGAEPKRPSRPINITPLARLSATVPNTIVVNWSSEFGRNYSLSVYLVRQLTAGTLLQKLRAKGIRNPDHSRALIKEKLTADPDSEVATTSLRVSLMCPLGKMRLTVPCRALTCAHLQSFDAALYLQMNEKKPTWTCPVCDKKAPYESLIIDGLFMEILSSCSDCDEIQFMEDGSWCPMKPKKEASEVCPPPGYGLDGLQYSPVQGGDPSENKKKVEVIDLTIESSSDEEDLPPTKKHCSVTSAAIPALPGSKGVLTSGHQPSSVLRSPAMGTLGGDFLSSLPLHEYPPAFPLGADIQGLDLFSFLQTESQHYGPSVITSLDEQDALGHFFQYRGTPSHFLGPLAPTLGSSHCSATPAPPPGRVSSIVAPGGALREGHGGPLPSGPSLTGCRSDIISLD",sensitivity of cancer cells relative to non-cancerous cells such as cardiomyocytes,[3],about ten times more sensitive
